Test results published in ChEMBL document CHEMBL5335864 (ACS Med Chem Lett, 2024).

Test system: Plasmodium falciparum
Assay: Antiplasmodial activity against Plasmodium falciparum NF54 infected in human erythrocytes measured after 48 hrs by [3H]hypoxanthine incorporation assay
Assay type: functional, organism-based
Conditions: NF54, Erythrocyte

FC1CN(CCc2ccc(-c3noc(C(F)(F)F)n3)cc2)CCC1Nc1nc2ccccc2[nH]1 (stereo unspecified)
IC50: 219 nM
